Measurements from article PMC2714839, “Evidence for a role of NTS2 receptors in the modulation of tonic pain sensitivity” (Molecular Pain, 2009).
“And” between values parts separate entries of the source, which are not always exact repeats. Equal entries are not always repeated. Where two headings read alike, the source gives them in different places. Non-standard residues stand in square brackets, D forms with d. Residues, ends and D or L forms follow the SMILES beside them. Ala(indol-4-yl) = N[C@@H](Cc1cccc2[nH]ccc12)C(=O)O; NMeR = CN[C@@H](CCCNC(=N)N)C(=O)O; Tle = CC(C)(C)[C@H](N)C(=O)O

Experiments:
[1] = system: formalin-induced nociceptive behaviors; test: Formalin test, weighted pain score (A.U.C.) after intrathecal pretreatment; type: in vivo; conditions: rat, i.t. 5 μg/kg; for reduction of pain behaviors in the tonic phase (phase 2, 21-60 min, A.U.C.) vs vehicle: 5 min before formalin
Experimental: Experiments were performed with adult male Sprague-Dawley rats (250–300 g; Charles River, St-Constant, QC, Canada) kept on a 12 h light/dark cycle and allowed ad libitum access to food and water. Animals were individually acclimatized to Plexiglas enclosures for 3 consecutive days prior to testing. The formalin test was always performed by three different experimenters in a quiet room and between 08.00 AM and 12.00 PM to reduce any variation related to circadian rhythm.
Antinociception was assessed using the formalin test as a model of persistent pain. For this purpose, rats were placed for a 60-min habituation period in the experimentation room. Thereafter, rats received a 50 μl subcutaneous injection of diluted 2% formaldehyde (i.e. 5% formalin, Fisher Scientific, Montreal, QC, Canada) into the plantar surface of the right hind paw.
Following this, the rats were placed in clear plastic chambers (30 × 30 × 30 cm) positioned over a mirror angled at 45°, in order to allow an unobstructed view of the paws, and their behaviors were recorded for the next 60 min. […] Nocifensive behaviors were assessed using a weighed score as described previously [43, 44]. […] The weighted nociceptive score, ranging from 0 to 3, is calculated by multiplying the time spent in each category by its assigned weight category, summing these products and dividing by the total time for each 3 min block of time. The total area under the curve (A.U.C.) for the inflammatory phase (phase 2) was calculated between 21 to 60 min for each animal. Phase 2 was further subdivided in early (21–39 min) and late (40–60) phases and analyzed as separate events [45]. […] The cumulative time spent in both lifting (state 2) and flinching/licking/biting (state 3), reflecting behavioral reactions integrated at different CNS levels, were also determined during the inflammatory phase (21 to 60 min following formalin) [42].
Data are presented as means ± standard errors of the mean (S.E.M.). All calculations and statistical analysis were performed using Prism 4.0 and Instat 3.05 (Graph Pad Software, San Diego, CA, USA). Nociceptive scores over the 3 min time blocks were analyzed using a two-way analysis of variance for repeated measures, with comparisons between experimental groups and the control group at each time interval using Bonferroni's post hoc t-test. A one-way ANOVA followed by Dunnett's post hoc t-test was used to determine the significance of differences in the A.U.C. and in the time spent in states 2 and 3. A difference in responses between groups was considered significant with P values; * P < 0.05 and ** P < 0.01.

rNTS1 = target: T1, rNTS1 (Rattus norvegicus, UniProt P20789); test: Competition binding of [3H]-NT to HEK293 cell membranes expressing rNTS1
T1 construct: expressed in transfected cells; membrane homogenates
T1 sequence (P20789 whole entry): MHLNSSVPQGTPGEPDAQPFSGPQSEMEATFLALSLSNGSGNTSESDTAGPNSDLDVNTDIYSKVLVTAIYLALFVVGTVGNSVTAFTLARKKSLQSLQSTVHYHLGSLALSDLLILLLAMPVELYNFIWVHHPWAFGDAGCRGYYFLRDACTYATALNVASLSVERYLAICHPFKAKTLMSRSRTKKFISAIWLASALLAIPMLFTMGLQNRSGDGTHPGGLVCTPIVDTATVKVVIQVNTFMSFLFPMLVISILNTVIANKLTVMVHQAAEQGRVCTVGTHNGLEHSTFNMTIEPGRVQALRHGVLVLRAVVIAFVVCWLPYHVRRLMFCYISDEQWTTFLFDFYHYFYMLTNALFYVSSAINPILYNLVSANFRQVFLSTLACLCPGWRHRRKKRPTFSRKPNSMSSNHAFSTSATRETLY
Experimental: (§1) Cells were fed every 2 days with 20 ml of medium. 70–80% confluent HEK 293 cells were washed twice with phosphate-buffered saline solution, scraped into 50 mM Tris-HCl (pH 7.4) buffer containing 1 mM EDTA and 250 mM sucrose and centrifuged at 15,000 g for 12 min at 4°C. Pellets were then re-suspended in hypotonic TE buffer (50 mM Tris-HCl (pH 7.4) buffer containing 1 mM EDTA) and membrane homogenates were recovered by centrifugation for 30 min at 4°C. The final protein concentration was determined with the use of the BCA assay kit (Pierce Biotechnology Inc, Rockford, IL).
(§2) Binding was terminated by two successive additions of 3 ml of ice-cold buffer and filtering under vacuum through GF/B filters presoaked in binding buffer containing 0.2% polyethyleneimine (48-well Brandel Harvester). Filters were placed in scintillation vials containing 5 ml scintillation liquid (Ecolite) and then counted in a beta counter.

[2] = system: formalin-induced nociceptive behaviors; test: Formalin test, cumulative time in stereotypic behaviors (lifting; flinching/licking/biting); type: in vivo; conditions: rat
Experimental: Experiments were performed with adult male Sprague-Dawley rats (250–300 g; Charles River, St-Constant, QC, Canada) kept on a 12 h light/dark cycle and allowed ad libitum access to food and water. Animals were individually acclimatized to Plexiglas enclosures for 3 consecutive days prior to testing. The formalin test was always performed by […] in a quiet room and between 08.00 AM and 12.00 PM to reduce any variation related to circadian rhythm. The experimental procedures in this study were approved by the Animal Care Committee of the University of Sherbrooke and were in accordance with policies and directives of the Canadian Council on Animal Care.
Behavioral experiments aimed at establishing the effects of NT analogs and NTS2-selective agonists on formalin-induced nocifensive behaviors. To this end, rats were lightly anesthetized with isoflurane (Abbott Laboratories, Montreal, QC, Canada) and injected intrathecally, at the L5-L6 intervertebral space, with either NT (6 μg/kg), NT69L (5 μg/kg), JMV-431 (5 to 60 μg/kg), or levocabastine (0.5 and 5 μg/kg) diluted in 30 μl of physiological saline (0.9% NaCl), 5 min before formalin administration. Control animals received physiological saline.
Antinociception was assessed using the formalin test as a model of persistent pain. […]
Following this, the rats were placed in clear plastic chambers (30 × 30 × 30 cm) positioned over a mirror angled at 45°, in order to allow an unobstructed view of the paws, and their behaviors were recorded for the next 60 min. […] Nocifensive behaviors were assessed using a weighed score as described previously. […] The weighted nociceptive score, ranging from 0 to 3, is calculated by multiplying the time spent in each category by its assigned weight category, summing these products and dividing by the total time for each 3 min block of time. The total area under the curve (A.U.C.) for the inflammatory phase (phase 2) was calculated between 21 to 60 min for each animal. Phase 2 was further subdivided in early (21–39 min) and late (40–60) phases and analyzed as separate events. Formalin-induced pain related behavior may also be quantified by monitoring the number and the duration of episodes of different behavioral endpoints. The cumulative time spent in both lifting (state 2) and flinching/licking/biting (state 3), reflecting behavioral reactions integrated at different CNS levels, were also determined during the inflammatory phase (21 to 60 min following formalin).
Data are presented as means ± standard errors of the mean (S.E.M.). […] Nociceptive scores over the 3 min time blocks were analyzed using a two-way analysis of variance for repeated measures, with comparisons between experimental groups and the control group at each time interval using Bonferroni's post hoc t-test. […]

c-fos = test: Formalin-evoked c-fos-like immunoreactivity in lumbar spinal cord (L4-L5); type: in vivo; conditions: rat
Experimental: At 45 min following formalin injection, rats were deeply anesthetized and perfused intraaortically with ice-cold 4% paraformaldehyde (Fisher Scientific, Montreal, QC, Canada) in 0.1 M PB, pH 7.4. The spinal cord was isolated and then cryoprotected overnight at 4°C in 30% sucrose in phosphate-buffered saline (PBS). Prior to tissue sectioning, an incision was made in the ventral horn of the contralateral side to allow spatial positioning of the spinal cord for further analysis. Transverse frozen sections (35-μm-thick) were then cut from the lumbar segment (L4-L5) of the spinal cord with a sliding microtome and processed by a free-floating slice immunohistochemistry procedure. After elimination of endogenous peroxidase activity with 0.3% hydrogen peroxide in PBS for 1 h, the tissue sections were rinsed three times in PBS and incubated for 1 h at RT in a blocking solution of 3% normal goat serum (NGS) and 0.3% Triton X-100 in PBS. After washing, free-floating sections were incubated overnight at RT with the rabbit anti-c-fos polyclonal antibody diluted 1:1000 in PBS (sc-52, Santa Cruz Biotechnology, Santa Cruz, CA, USA), containing 1% NGS and 0.3% Triton X-100. The tissue was then washed three times in PBS and transferred to a goat anti-rabbit biotinylated secondary IgG complex (1:200 in 1% NGS and 0.3% Triton X-100 in PBS; Vector, Burlingame, CA, USA) for 1 h at RT followed by exposing to avidin-biotin horseradish peroxydase complex (1:100; Vectastain ABC-Elite kit, Vector Laboratories, Burlington, ON, Canada) for 1 h at RT. After the final wash with PBS, the chromagen was developed using nickel intensified 3,3'-diaminobenzidine (DAB, 0.01%) and 0.3% H2O2. Finally, the sections were thoroughly rinsed with PBS, mounted onto slides, dehydrated in a series of graded alcohols, defatted in xylene, and placed on coverslips.
Sections were visually scanned and photographed using a bright-field microscope (Leica DM4000B; Leica Microsystems, Toronto, Canada). The individual sections were printed and overlaid with an acetate sheet on which the distribution of c-fos immunoreactive neurons was then plotted. […] For the quantification of c-fos labeled neurons, each section of the spinal cord was divided into four regions of interest: the superficial laminae (laminae I, IIo and IIi), the nucleus proprius (laminae III and IV), the neck of the dorsal horn (laminae V and VI) and the deep lamina X according to the cytoarchitectonic organization of the spinal cord. The number of c-fos immunoreactive neurons in the four defined regions was determined by averaging the counts made in 10–15 sections and expressed as mean ± S.E.M. of these values for all the rats in that treatment group for statistical analysis of the different experimental conditions. […] A Dunnett's t-test was applied to assess differences between the drug and vehicle groups. A value of P < 0.05 was considered statistically significant.

rNTS2 = target: T2, rNTS2 (Rattus norvegicus, UniProt Q63384); test: Competition binding of [3H]-NT to HEK293 cell membranes expressing rNTS2
T2 construct: expressed in transfected cells; membrane homogenates
T2 sequence (Q63384 1-416): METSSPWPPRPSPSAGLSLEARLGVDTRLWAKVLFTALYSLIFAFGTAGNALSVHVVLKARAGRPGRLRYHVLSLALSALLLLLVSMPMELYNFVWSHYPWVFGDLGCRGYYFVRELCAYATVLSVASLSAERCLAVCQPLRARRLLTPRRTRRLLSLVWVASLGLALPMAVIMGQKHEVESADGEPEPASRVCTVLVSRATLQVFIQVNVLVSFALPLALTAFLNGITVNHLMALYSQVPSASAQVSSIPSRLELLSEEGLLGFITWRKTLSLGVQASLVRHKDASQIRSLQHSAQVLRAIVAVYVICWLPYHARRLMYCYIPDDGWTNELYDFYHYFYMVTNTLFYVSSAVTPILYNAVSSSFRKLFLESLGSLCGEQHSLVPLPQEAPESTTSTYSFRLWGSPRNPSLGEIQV
Experimental: as §1, §2

[3] = i.t. 5 μg/kg, 45 min after formalin

CN[C@@H](CCCNC(=N)N)C(=O)N[C@@H](CCCCN)C(=O)N1CCC[C@H]1C(=O)N[C@@H](Cc1cccc2[nH]ccc12)C(=O)N[C@H](C(=O)N[C@@H](CC(C)C)C(=O)O)C(C)(C)C [NT69L, N-methyl-Arg-Lys-Pro-L-neo-Trp-tert-Leu-Leu-OH] (H-[NMeR]KP[Ala(indol-4-yl)][Tle]L-OH; N-terminus assumed)
decrease in A.U.C. in early phase 2 (21-39 min) [1]: 70 ± 13%
decrease in A.U.C. in late phase 2 (40-60 min) [1]: 48% ± 19
reduction of pain behaviors in the tonic phase (phase 2, 21-60 min, A.U.C.) vs vehicle [1]: 59 ± 13%
IC50 (rNTS1): 2.2 ± 0.5 nM
reduction of lifting time during the tonic phase ([2]; i.t. NT69L 5 μg/kg): 74 ± 13%
attenuation of flinching, licking and biting responses (maximum antagonism) ([2]; i.t. NT69L 5 μg/kg, tonic phase): 70 ± 15%
effect on spinal nociceptive neuronal responses (c-fos) induced by formalin (c-fos; data not shown): attenuated
IC50 (rNTS2; IC50 rNTS2): 3.7 ± 0.4 nM

C[C@@H]1CN([C@H]2CC[C@](C#N)(c3ccc(F)cc3)CC2)CC[C@]1(C(=O)O)c1ccccc1 [Levocabastine, levocabastine]
decrease in A.U.C. in early phase 2 (21-39 min) [1]: no effect
decrease in A.U.C. in late phase 2 (40-60 min) [1]: 48 ± 16%
reduction of pain behaviors in the tonic phase (phase 2, 21-60 min, A.U.C.) vs vehicle [1]: 29 ± 5%
IC50 (rNTS1; read-out: IC50 rNTS1): > 10000 nM
effect on formalin-evoked licking/shaking/biting behaviors, phase 2 ([2]; i.t., all doses tested): do not reverse
inhibition of cumulative time spent in lifting, phase 2 (21-60 min) ([2]; i.t., maximum reached over the doses tested (JMV-431 5-60 μg/kg, levocabastine 0.5-5 μg/kg)): 73 ± 5%
reduction of contralateral c-fos immunoreactivity, lamina X (c-fos; [3]): 98 ± 1%
reduction of contralateral c-fos immunoreactivity, laminae I-II (c-fos; [3]): 74 ± 7%
reduction of contralateral c-fos immunoreactivity, laminae III-IV (c-fos; [3]): 72 ± 7%
reduction of contralateral c-fos immunoreactivity, laminae V-VI (c-fos; [3]): 77 ± 5%
reduction of number of c-fos-LI neurons, ipsilateral laminae I-II (c-fos; [3]): 26 ± 7%
reduction of number of c-fos-LI neurons, ipsilateral laminae III-IV (c-fos; [3]): 60 ± 5%
reduction of number of c-fos-LI neurons, ipsilateral laminae V-VI (c-fos; [3]): 53 ± 3%
reduction of number of c-fos-LI neurons, ipsilateral laminae X (c-fos; [3]): 56 ± 8%
IC50 (rNTS2; inhibition of 2 nM [3H]-NT binding, HEK293 cell membranes expressing rat NTS2, read-out: IC50 rNTS2): 3 nM and 2.7 nM

CC[C@H](C)[C@H](NC[C@H](Cc1ccc(O)cc1)NC(=O)[C@@H]1CCCN1C(=O)[C@H](CCCNC(=N)N)NC(=O)[C@H](CCCNC(=N)N)NC(=O)OC(C)(C)C)C(=O)N[C@@H](CC(C)C)C(=O)O [JMV-431, Boc-Arg-ArgPro-Tyrø(CH2NH)-Ile-Leu-OH]
IC50 (rNTS1): 4740 ± 135 nM
IC50 (rNTS2; IC50 rNTS2): 19 ± 3.2 nM
